According to patent US20230102836A1, “Amoebicidal Compositions for Contact Lens Solutions” (University of the West of Scotland, priority 2019, published 2023):
Several values for one entry are separate records, joined by “and”; a condition that tells them apart may be missing. Equal entries are not always repeated.

Assays:
[1] = tested on: A. castellanii trophozoites; experiment: Cytotoxicity assay on trophozoites (resazurin / alamarBlue); format: cell-based, Acanthamoeba castellanii ATCC 50370; conditions: Acanthamoeba castellanii; Table 2; read-out: IC50 A. castellanii trophozoites
Protocol: (§1) Acanthamoeba castellanii ATCC 50370 trophozoites and cysts were cultured in Peptone Glucose (PG) medium and encystment medium (Chagla A H, Griffiths A J (1974) Microbiology: 85(1): 139-145) respectively at 25° C. Cysts were prepared by incubating trophozoites for 8 days in encystment medium and integrity validated with calcofluor (0.25 μg/ml) assay (Gatti S et al (2010) J. Med. Microbiol.; 59: 1324-1330) or sodium dodecyl sulfate (SDS, 0.5% w/v) disintegration assay (Dudley R et al (2005) Acta Trop.; 9: 100-8) and microscopic observation.
The compounds used in this study all contained alkyl-carbon chains: three APCs [dodecyl-PC (APC12), tetradecyl-PC. (APC14) and hexadecyl-PC (APC16)] (Anatrace) and four QACs [docdecyl-TMAB (QAC12), tetradecyl-TMAB (QAC14), hexadecyl-TMAB (QAC16) and octadecyl-TMAB (QAC18)](Sigma). All were prepared to a stock concentration of 1 mg/ml and diluted as required by the experimental protocol in the cytotoxicity assays. […]
[…] Resazurin (7-Hydroxy-31-phenoxazin-3-one 10-oxide; 5 mg/ml; McBride J et al (2005) J. Clin. Microbiol.; 43: 629-634) and trypan blue (0.4 μg/ml; Mafra C S P et al (2013) Investig. Ophthalmol. Vis. Si.; 54: 6363-6372) were then added to trophozoites and cysts respectively after being exposed to the compounds and the cell viability estimated microscopically and from changes in absorbance (at 595 nm and 570 nm) respectively.
Efficacy was expressed as a percentage of untreated controls for each drug concentration used and the data used to calculate the IC50. Cell density was estimated using the modified Neubaur hemocytometer and expressed as cells/ml.

[2] = tested on: A. castellanii trophozoites; experiment: Drug wash-out / alamarBlue-reversion assay, trophozoites; format: cell-based, Acanthamoeba castellanii ATCC 50370
A. castellanii cysts = experiment: Drug wash-out / alamarBlue-reversion assay, cysts; format: cell-based, Acanthamoeba castellanii ATCC 50370; conditions: for Back transformation to trophozoites after drug wash-out: Cysts; on Back transformation to trophozoites after drug wash-out: key: +: indicates cells reverting back to trophozoites after washout; and capable of oxidizing reduced alamarBlue from blue to pink after 8 days; −: indicates cell that did not revert to trophozoites after wash-out and unable to oxidise reduced alamarBlue solution
Protocol: For the drug kinetic assay, viability was assessed by the linked alamarBlue-reversion assay. Drug-treated cysts were washed with PBS and fresh PG medium was added to allow reversion to trophozoites for 5 days, after which, alamar blue was added and viability estimated as described above.
The cysticidal activity of QAC16 to QAC18 strongly correlated with (a) the alkyl-carbon chain lengths (Table 2) and the duration of drug contact (FIG. 8H). Like trophozoites, death was via leakage judged by 40% and 50% increase in DNA and proteins in the external milieu after 1 h (FIGS. 9A and 9B). To investigate if the cyst were viable, a complementary viability assay that involved, drug washout, incubation in PG medium to allow reversion of viable cyst to trophozoite for 7 days, and estimation of viability using the oxidation of resazurin after 6 h.

[3] = tested on: Acanthamoeba trophozoites; experiment: Checkerboard dilution QAC-APC interaction (Bliss model); format: cell-based, Acanthamoeba castellanii; conditions: APC12, APC14, APC16; 96 h at 25° C.
Protocol: Acanthamoeba trophozoites (10^5 cells/ml. n=5/treatment) treated with 100 μg/ml doubly diluted to 0.06 μg/ml of QAC12 (FIG. 7A), […], QAC16 (FIG. 7C) and QAC18 (FIG. 7D) with APC 12 (i), APCI 4 (ii) and APC16 (iii) for 96 h at 25° C. Cell viability estimated by the alamarBlue assay the dose-response curves used to produce a surface analysis (right panel) and the interaction profile determined using the Bliss model. The degree of interaction characterised by the QCScore heuristic score are produced as heat map (left panel). The colour of each cell in the heatmap and the surface analysis represents the assay response at that dose combination; red to orange, antagonistic: yellow to green, additive and blue, synergistic.
The change in potency between QAC and APC prompted us to used the checkerboard dilution method to identify synergistic interactions (FIG. 7A-D). Three interaction profiles, antagonistic (orange to red), additive (yellow to green) and synergistic (blue) were observed, with optimal synergistic interactions deemed to be significant occurring between 20-38%; (FIG. 7).

[4] = tested on: A. castellanii trophozoites; experiment: SDS disintegration of QAC-treated trophozoites; format: cell-based, Acanthamoeba castellanii ATCC 50370; conditions: QAC18-treated, 0.5% SDS for 30 min
Protocol: Acanthamoeba trophozoites ([…]) incubated without (FIG. 2A), with QAC18 at 37.5 μg/ml for 1 h at 25° C. (FIG. 2B), and 0.5% SDS for 30 min (FIG. 2C). QAC18 reduced trophozoites sizes from 29.02±0.23 (FIG. 2A) to 7.87 f 0.93 (FIG. 2B) which disintegrated after 30 min treatment with SDS (FIG. 2C).
as §1

## CCCCCCCCCCCCCCCCCC[N+](C)(C)C.[Br-] [QAC18, octadecyltrimethyl ammonium bromide]
[1]
  IC50: 1.06 µg/mL and 3 µM
[2]; 9.375 μg/ml, 1 h
  Back transformation to trophozoites after drug wash-out: +
[2]; 9.375 μg/ml, 24 h
  Back transformation to trophozoites after drug wash-out: −
[2]; 9.375 μg/ml, 48 h
  Back transformation to trophozoites after drug wash-out: −
[2]; 9.375 μg/ml, 72 h
  Back transformation to trophozoites after drug wash-out: −
[2]; 9.375 μg/ml, 96 h
  Back transformation to trophozoites after drug wash-out: −
[2]; 18.75 μg/ml, 1 h
  Back transformation to trophozoites after drug wash-out: +
[2]; 18.75 μg/ml, 24 h
  Back transformation to trophozoites after drug wash-out: −
[2]; 18.75 μg/ml, 48 h
  Back transformation to trophozoites after drug wash-out: −
[2]; 18.75 μg/ml, 72 h
  Back transformation to trophozoites after drug wash-out: −
[2]; 18.75 μg/ml, 96 h
  Back transformation to trophozoites after drug wash-out: −
[2]; 37.50 μg/ml, 1 h
  Back transformation to trophozoites after drug wash-out: −
[2]; 37.50 μg/ml, 24 h
  Back transformation to trophozoites after drug wash-out: −
[2]; 37.50 μg/ml, 48 h
  Back transformation to trophozoites after drug wash-out: −
[2]; 37.50 μg/ml, 72 h
  Back transformation to trophozoites after drug wash-out: −
[2]; 37.50 μg/ml, 96 h
  Back transformation to trophozoites after drug wash-out: −
[2]; after 24 h at 9.375 μg/ml
  Amoebotoxicity after wash-out and replacement with PG medium: amoebotoxic
[2]; from 1 h onwards at 37.5 μg/ml
  Amoebotoxicity after wash-out and replacement with PG medium: amoebotoxic
A. castellanii cysts; 18.75 μg/ml after 48 h
  Resurgence of cysts after drug washout: No resurgence
A. castellanii cysts; 37.5 μg/ml after 24 h
  Resurgence of cysts after drug washout: No resurgence
A. castellanii cysts; 9.375 μg/ml, 24 h
  Back transformation to trophozoites after drug wash-out: +
A. castellanii cysts; 9.375 μg/ml, 48 h
  Back transformation to trophozoites after drug wash-out: +
A. castellanii cysts; 9.375 μg/ml, 72 h
  Back transformation to trophozoites after drug wash-out: +
A. castellanii cysts; 18.75 μg/ml, 24 h
  Back transformation to trophozoites after drug wash-out: +
A. castellanii cysts; 18.75 μg/ml, 48 h
  Back transformation to trophozoites after drug wash-out: +
A. castellanii cysts; 18.75 μg/ml, 72 h
  Back transformation to trophozoites after drug wash-out: +
A. castellanii cysts; 37.50 μg/ml, 24 h
  Back transformation to trophozoites after drug wash-out: −
A. castellanii cysts; 37.50 μg/ml, 48 h
  Back transformation to trophozoites after drug wash-out: −
A. castellanii cysts; 37.50 μg/ml, 72 h
  Back transformation to trophozoites after drug wash-out: −
[3]
  Interaction profile of QAC combined with APCs: No significant synergy
[4]
  Disintegration of shrunk treated trophozoites by 0.5% SDS: 92%
